# Results from patent US20140274684A1, “Compounds, Compositions, and Methods for Altering Behavior of Insects Or Other Organisms” (BAYER CROPSCIENCE LP, priority 2013, published 2014).
# Test system: honeybees
# Experiment: honeybee repulsion experiment at feeding stations with 50% sucrose
# Type: in vivo
# Conditions: 2% by weight in 50% sucrose
# Protocol: FIG. 1 describes the feeding station arrangement (A and B) for the honeybee repulsion experiments described herein. As set forth in FIG. 1, panel (A) sets forth the bee cage positions on the left portion of panel (A) with the randomized feeding station positions on the right portion of panel (A). Panel (B) sets forth an alignment of the randomized feeding station positions with a distance of two meters between feeding stations. A total of eight feeding stations were evaluated at a ten meter distance in front of the respective bee hives. The feeding stations were placed two meters apart from one another.
# Honeybees were trained to deep feeders (eight positions), each containing a 50% sucrose solution for one day. After the honeybees were trained to each feeder, the 50% sucrose feeder at randomized positions 1-8 was replaced with a shallow feeder containing a combination of repelling compounds and a 50% sucrose solution according to Table 5. In accordance with FIGS. 5 and 6, 2% by weight of Camphor oil (T4), Ajowan oil (T5), Camphor powder (T6), Rosemary oil (T7), and 2-Decanone (T8) in combination with a 50% sucrose treatment were added to feeders on day two.
# Table 5 describes active agents evaluated for bee repulsion and their randomized feeding station positions. As described in Table 5, T1 (control), T2 (control), T3 (control), T4 (Camphor oil), T5 (Ajowan oil), T6 (Camphor powder), T7 (Rosemary oil), and T8 (2-Decanone).
# FIG. 5 evaluates the number of bees visiting a respective feed station over a time interval. FIG. 6 sets forth the mean number of honeybees visiting feeding station over a period of four hours.
smiles,measurement,setting,value
"CCCCCCCCC(C)=O [2-Decanone, 2-decanone]",repellency to honeybees visiting feeding station,at/after 24 hours,exhibited repellency
same,repellency to honeybees visiting feeding station,"at/after 24 hours, listed as 2-decanone",still repellent
same,repellency to honeybees visiting feeding station,full 4 hour assessment period,highly repellent
